Measured values as given in patent publication US20060239913A1, “Peptide conjugate for magnetic resonance imaging” (priority 2003, published 2006).
pIC50: −log10 of the molar value.

Tests used:
human MMP-1 [1] = molecular target: T1, human MMP-1 (Homo sapiens, UniProt P03956); test: In vitro MMP inhibition assay (fluorimetric), MMP-1; type: biochemical; conditions: for inhibitory activity on MMP-1 (in words): concentration of 1.0E-05 M; for % inhibition of control values: mean of duplicate
T1 construct: endogenous in cells; host or cells: human rheumatoid synovial fibroblast
T1 sequence (P03956 100-469): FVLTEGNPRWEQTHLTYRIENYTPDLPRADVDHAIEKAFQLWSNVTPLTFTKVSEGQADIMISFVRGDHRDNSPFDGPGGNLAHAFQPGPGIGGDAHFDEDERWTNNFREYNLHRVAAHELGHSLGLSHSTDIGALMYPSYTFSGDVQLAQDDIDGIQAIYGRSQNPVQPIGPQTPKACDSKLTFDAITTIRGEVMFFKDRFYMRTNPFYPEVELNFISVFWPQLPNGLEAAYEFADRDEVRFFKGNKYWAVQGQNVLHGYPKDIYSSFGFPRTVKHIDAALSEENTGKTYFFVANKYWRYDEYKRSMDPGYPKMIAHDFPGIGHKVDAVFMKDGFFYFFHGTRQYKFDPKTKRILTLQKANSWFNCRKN
Procedure: (§1) The ability of compound B or the corresponding peptide hydroxamate to inhibit MMP-1, MMP-2 or MMP-3 activity was tested in vitro, on human enzymes. The reaction was based on the formation of a fluorescent compound produced after MMP-cleavage of a substrate (see table 1 for experimental conditions). Briefly, compound B or the peptide alone was added at 3 different concentrations to a buffer containing the MMP to test. For the control sample, the contrast agent or the peptide was replaced by water. After a pre-incubation period of 30 min at 37° C., the fluorescence intensity was measured using a microplate reader (GeminiXS, Molecular Devices), in order to detect any compound interference with the fluorimetric assay (═F1). The enzymatic reaction was then initiated by the addition of the MMP substrate and the mixture was again incubated at 37° C. After a pre-determined time, a second fluorescent measurement was performed (═F2). The enzyme activity was determined by subtracting the signal F1 from F2, and the results were expressed as a percent inhibition of the control enzyme activity.

[2] = test system: artery slices originating from Watanabe Heritable Hyperlipidemic rabbits; test: Ex vivo MRI and Gd quantification on WHHL rabbit artery slices; conditions: for ex vivo MRI enhancement of the sections / amount of Gd in the sections by ICP-MS (mean value): after 1 h; for ex vivo MRI enhancement of the sections: 3 h or 18 h incubation; for amount of Gd in the sections by ICP-MS (mean value): 3 h or 18 h incubation at 5×10^−4 M Gd, no washing
From the text: Specimen preparation—Watanabe Heritable Hyperlipidemic rabbits (CAP, Olivet, France), which develop hypercholesterolemia and subsequent atherosclerosis due to a genetic deficiency of LDL receptors, were profoundly anaesthetized. After their sacrifice by exsanguination, the arterial tree, comprising the aortic arch with the beginning of the efferent arteries, as well as the thoracic aorta and the supra-renal abdominal aorta, was removed in one block and flushed with heparinized Krebs-Ringer Bicarbonate buffer (pH=7.4) in order to clean any remaining blood. The arterial specimen was then kept frozen at −20° C.; it was gently and extemporarily unfrozen for experimental purpose.
(§2) Finally, both rabbits and human atherosclerotic segments were cut in exactly 3.0 mm-thick sections, before their contact with the contrast medium and ex vivo imaging.
Ex vivo incubation—All the slices were deposited in a 24-wells culture plate. They were then incubated under stirring at 37° C., in 1.0 ml of Krebs-Ringer Bicarbonate buffer (pH=7.4), Gd-DOTA or compound B (at a Gd concentration of 5×10^−4 M). After pre-determined incubation periods of 1 h, 3 h or 18 h, the slices originating from the WHHL rabbits were either immediately imaged, or subjected to a washing during 30 min, 1 h or 3 h (n=3 for each condition) in 10.0 ml of Krebs-Ringer bicarbonate buffer, with the medium being replaced every hour. Regarding human samples, only the protocol which allowed the best differentiation between the compounds (i.e. an incubation period of 18 h, followed by a washing of 30 min) was applied. Afterwards, all the slices were drained and prepared for ex vivo imaging. Further the protocol was applied both regarding to lesional plaques and not lesional plaques specimens.
Specificity testing—To additionally test the specificity of the compound B uptake, we repeated the ex vivo 18 h-incubation with a new set of WHHL rabbit atherosclerotic slices which were previously incubated during 30 min with the hydroxamate peptide, at a 10 times higher concentration than COMPOUND B (i.e. 5×10^−3 M). The samples were subsequently washed during 30 min, as previously described.
Detection of the contrast media by ex vivo imaging and Gd quantification—For ex vivo MRI, the aortic slices were transferred in a new 24-wells plate and embedded in a semi-solid agar-agar gel (0.8% m/v) at room temperature. Images were performed on a 2.35 T MRI system (Biospec, Bruker, Germany), using a 7 cm inner diameter birdcage coil and a 200 mT/m insert gradient. A 3D T1w SNAP sequence was acquired with following parameters (TR/TE/α=20 ms/4.2 ms/75°, Matrix 256*256*16, resolution 235*175*1000 μm^3, duration 21′49″) to have a compromise between resolution, short duration for screening and sections localization. Finally, the gel was removed from the aortic segments and the Gd contained in each precisely weighed sample was quantified by ICP-MS after acidic mineralization.

[3] = Biodistribution assay in ApoE-KO mice (Gd by ICP-MS); type: in vivo; conditions: C57Bl/6 background, mouse, plasma, iv, 100 μmol Gd/kg, i.v., read-out: half-life of elimination in plasma
Procedure: (§3) Animals—the tissue distribution of compound B, when compared to Gd-DOTA, was performed in ApoE-KO mice in a 100% C57Bl/6 background. The animals were bred and housed in the Animal Experiment Unit of the Center of Molecular and Vascular Biology, Leuven, Belgium, and had free access to food and water.
(§4) ApoE-KO mice of 11-12 weeks were fed a cholesterol-rich Western-type diet (Tecklad, Madison, USA) for 4 months. This model of atherosclerosis was fully characterized: it contained extensive atherosclerotic plaques in the heart and aortic arch, where the plaques occupied 34% of the total lumen area. […] Biodistribution—After the diet period, animals were matched for sex and body weight. compounfd B or Gd-DOTA was administered intravenously via the tail vein (n=7/compound), at a clinical dose of 100 μmol Gd/kg. 60 min post-injection, the animals were anaesthetized and blood was obtained via eye bleeding. The mice were then subjected to a transcardiac perfusion with heparinized saline, in order to clear the intravascular compartment from any residual circulating contrast agent. Muscle and different organs (kidney, liver) were removed, as well as some artery specimens (aortic arch, carotid arteries, thoracic aorta, abdominal aorta and femoral artery). Finally, an aliquot of the blood sample was centrifuged and the Gd^3+ contained in all the collected samples was quantified by induced coupled plasma—mass spectrometry (ICP-MS) after acidic mineralization.

ApoE-KO mice = test: as above; type: in vivo
Procedure: as §3, §4

[4] = test system: atherosclerotic human sections (carotid artery); test: Ex vivo MRI and Gd quantification on human carotid endarterectomy sections; conditions: 18 h incubation, 30 min washing
Procedure: Samples of fresh carotid artery were obtained from patients (n=21) undergoing carotid endarterectomy. Specimen consisted of the common carotid artery, as well as the internal and external carotid arteries. The excised plaques were rinsed in ice-cold saline and they were used in the 2-4 hours following surgery.
as §2
Ex vivo incubation—All the slices were deposited in a 24-wells culture plate. […] After pre-determined incubation periods of 1 h, 3 h or 18 h, the slices originating from the WHHL rabbits were either immediately imaged, or subjected to a washing during 30 min, 1 h or 3 h (n=3 for each condition) in 10.0 ml of Krebs-Ringer bicarbonate buffer, with the medium being replaced every hour. […]
Detection of the contrast media by ex vivo imaging and Gd quantification—For ex vivo MRI, the aortic slices were transferred in a new 24-wells plate and embedded in a semi-solid agar-agar gel (0.8% m/v) at room temperature. […] Finally, the gel was removed from the aortic segments and the Gd contained in each precisely weighed sample was quantified by ICP-MS after acidic mineralization.

human MMP-2 [5] = molecular target: T2, human MMP-2 (Homo sapiens, UniProt P08253); test: In vitro MMP inhibition assay (fluorimetric), MMP-2; type: biochemical; conditions: for inhibitory activity on MMP-2 (in words): concentration of 1.0E-05 M; for % inhibition of control values: mean of duplicate
T2 construct: endogenous in cells; host or cells: human rheumatoid synovial fibroblast
T2 sequence (P08253 110-660): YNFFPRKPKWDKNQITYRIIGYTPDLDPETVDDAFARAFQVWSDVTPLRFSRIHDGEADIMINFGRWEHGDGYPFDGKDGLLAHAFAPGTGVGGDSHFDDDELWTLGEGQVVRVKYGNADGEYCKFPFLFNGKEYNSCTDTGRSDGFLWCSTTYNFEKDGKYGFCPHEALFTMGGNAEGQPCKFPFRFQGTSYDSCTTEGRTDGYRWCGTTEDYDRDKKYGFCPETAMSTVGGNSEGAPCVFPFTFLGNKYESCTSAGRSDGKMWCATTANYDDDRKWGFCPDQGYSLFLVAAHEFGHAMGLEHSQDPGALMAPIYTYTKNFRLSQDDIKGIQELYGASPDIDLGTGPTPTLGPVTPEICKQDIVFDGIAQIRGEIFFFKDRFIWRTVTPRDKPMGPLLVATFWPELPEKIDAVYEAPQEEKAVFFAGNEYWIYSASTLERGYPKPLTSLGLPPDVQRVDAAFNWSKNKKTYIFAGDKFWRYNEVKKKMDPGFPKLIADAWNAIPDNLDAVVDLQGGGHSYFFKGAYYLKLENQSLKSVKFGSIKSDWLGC
Procedure: as §1, with “The” for “The ability of compound B or the corresponding peptide hydroxamate to inhibit MMP-1, MMP-2 or MMP-3 activity was tested in vitro, on human enzymes. The”, “Briefly, compound B or the peptide alone was added at 3 different concentrations to a buffer containing the MMP to test.” left out

human MMP-2 [6] = molecular target: T2, human MMP-2; conditions: reported value; cited from earlier work
human MMP-3 [7] = molecular target: T3, human MMP-3 (Homo sapiens, UniProt P08254); test: In vitro MMP inhibition assay (fluorimetric), MMP-3; type: biochemical; conditions: for % inhibition of control values: mean of duplicate
T3 construct: made in house; host or cells: Sf9 insect cells
T3 sequence (P08254 100-477): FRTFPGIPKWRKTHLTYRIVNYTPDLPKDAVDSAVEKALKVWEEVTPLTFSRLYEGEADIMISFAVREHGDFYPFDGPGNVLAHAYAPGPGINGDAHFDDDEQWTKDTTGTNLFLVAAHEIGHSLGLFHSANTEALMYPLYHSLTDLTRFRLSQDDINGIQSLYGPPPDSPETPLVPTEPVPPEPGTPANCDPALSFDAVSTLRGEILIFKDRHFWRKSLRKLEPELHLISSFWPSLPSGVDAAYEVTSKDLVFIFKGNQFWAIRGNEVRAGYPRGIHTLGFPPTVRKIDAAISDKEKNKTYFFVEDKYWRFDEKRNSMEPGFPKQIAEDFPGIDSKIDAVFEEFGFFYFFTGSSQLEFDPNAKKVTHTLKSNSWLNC
Procedure: as §1

human MMP-3 [8] = molecular target: T3, human MMP-3; conditions: reported value; cited from earlier work
human MMP-1 [9] = molecular target: T1, human MMP-1; conditions: reported value; cited from earlier work

CC(C)C[C@@H](NC(=O)[C@@H]1CCCN1C(=O)CNC(=O)c1ccc(NC(=S)Nc2ccc(CCC(C(=O)O)N3CCN(CC(=O)O)CCN(CC(=O)O)CCN(CC(=O)O)CC3)cc2)cc1)C(=O)N[C@@H](C)C(=O)NO (some centres unmarked) [Compound B]
inhibitory activity on MMP-1 (in words) (human MMP-1 [1]): effective
ex vivo MRI enhancement after inhibition/competition with free peptide ([2]; 30 min preliminary incubation with free peptide 5×10^−3 M, then 18 h incubation, 30 min washing): very faint enhancement
ex vivo MRI enhancement of the sections [2]: strong but more delineated enhancement
amount of Gd in the sections by ICP-MS (mean value) [2]: 5-11 nmol/section
mean Gd concentration after washing ([2]; incubated 3 h or 18 h, after 30 min and 1 h of washing): 1-8 nmol/section
half-life [3]: 15 min
concentration in the arterial wall compared to Dotarem (ApoE-KO mice; artery specimen, 60 min post-injection, p<0.01): 3-3.5 times
enhancement of atherosclerotic human sections (MRI ex vivo and Gd quantification) [4]: able to enhance
inhibitory activity on MMP-2 (in words) (human MMP-2 [5]): effective

O=C([O-])CN1CCN(CC(=O)[O-])CCN(CC(=O)O)CCN(CC(=O)[O-])CC1.[Gd+3] [Gd-DOTA, gadoteric acid]
Gd concentration after first washing step (mean value) ([2]; after 30 min washing): < 0.8 nmol/section
ex vivo MRI enhancement of the sections [2]: strong, but diffuse, enhancement
amount of Gd in the sections by ICP-MS (mean value) [2]: 3-9 nmol/section
half-life of elimination in plasma (ApoE-KO mice; i.v.): 15 min
enhancement of atherosclerotic human sections (MRI ex vivo and Gd quantification) [4]: not

p-aminobenzoyl-Gly-Pro-D-Leu-D-Ala-NHOH [Peptide]
pIC50 (human MMP-2 [6]): 4.52
% inhibition of control values (human MMP-1 [1]; MMP-1, test concentration 1.0E−05 M): 46%
% inhibition of control values (human MMP-1 [1]; MMP-1, test concentration 1.0E−07 M): 10%
% inhibition of control values (human MMP-1 [1]; MMP-1, test concentration 1.0E−09 M): 9%
inhibitory activity on MMP-1 (in words) (human MMP-1 [1]): effective
inhibitory activity on MMP-3 (in words) (human MMP-3 [7]): no activity
% inhibition of control values (human MMP-3 [7]; MMP-3, test concentration 1.0E−05 M): 8%
% inhibition of control values (human MMP-3 [7]; MMP-3, test concentration 1.0E−07 M): 4%
% inhibition of control values (human MMP-3 [7]; MMP-3, test concentration 1.0E−09 M): 0%
pIC50 (human MMP-3 [8]): 3.82
pIC50 (human MMP-1 [9]): 6.00
% inhibition of control values (human MMP-2 [5]; MMP-2, test concentration 1.0E−04 M): 94%
% inhibition of control values (human MMP-2 [5]; MMP-2, test concentration 1.0E−05 M): 68%
% inhibition of control values (human MMP-2 [5]; MMP-2, test concentration 1.0E−07 M): 5%
inhibitory activity on MMP-2 (in words) (human MMP-2 [5]): effective
